For orientation: IC50 means the concentration needed to halve the response being measured. Lower therefore signals higher potency.

Holding throughout (experiment): cell-based
The target in assay [1] is human ZIP14 (hZIP14) isoform 1, HA-tagged (Homo sapiens, UniProt Q15043).
Assay [2] addresses human ZIP14 (hZIP14) isoform 1, HA-tagged (Homo sapiens, UniProt Q15043, D443L).
In assay [3] the target is human ZIP8 (hZIP8) (Homo sapiens, UniProt Q9C0K1).
Sequence of human ZIP8 (hZIP8) (Q9C0K1 23-460): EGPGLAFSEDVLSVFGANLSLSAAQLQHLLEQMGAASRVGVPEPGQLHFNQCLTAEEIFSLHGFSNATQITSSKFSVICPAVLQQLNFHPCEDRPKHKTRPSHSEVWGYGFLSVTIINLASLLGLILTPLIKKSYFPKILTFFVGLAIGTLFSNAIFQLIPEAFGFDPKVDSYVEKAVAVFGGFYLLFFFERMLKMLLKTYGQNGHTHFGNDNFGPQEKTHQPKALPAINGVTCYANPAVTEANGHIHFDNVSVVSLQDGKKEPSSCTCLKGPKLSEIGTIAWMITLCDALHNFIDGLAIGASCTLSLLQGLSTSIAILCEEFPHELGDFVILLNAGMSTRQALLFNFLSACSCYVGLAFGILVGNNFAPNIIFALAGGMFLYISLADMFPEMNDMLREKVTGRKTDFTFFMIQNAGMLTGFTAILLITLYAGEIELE

Sequence of human ZIP14 (hZIP14) isoform 1, HA-tagged (Homo sapiens, UniProt Q15043) (Q15043 31-492): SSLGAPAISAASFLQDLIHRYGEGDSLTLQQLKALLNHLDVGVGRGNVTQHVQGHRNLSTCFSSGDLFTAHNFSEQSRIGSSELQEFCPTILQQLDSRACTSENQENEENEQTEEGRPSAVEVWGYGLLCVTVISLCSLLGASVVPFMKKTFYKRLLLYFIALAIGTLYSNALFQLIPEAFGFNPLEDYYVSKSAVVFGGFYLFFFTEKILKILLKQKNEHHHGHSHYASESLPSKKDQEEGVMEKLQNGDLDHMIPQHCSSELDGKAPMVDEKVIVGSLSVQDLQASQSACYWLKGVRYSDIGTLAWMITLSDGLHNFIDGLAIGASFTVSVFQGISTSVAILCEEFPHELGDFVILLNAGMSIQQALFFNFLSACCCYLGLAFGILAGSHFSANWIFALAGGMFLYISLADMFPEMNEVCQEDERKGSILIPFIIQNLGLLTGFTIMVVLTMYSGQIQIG
Sequence of human ZIP14 (hZIP14) isoform 1, HA-tagged (Homo sapiens, UniProt Q15043, D443L) (Q15043 31-492 D443L): as the sequence (Q15043 31-492) above, with D413L counted along it

For the molecule `O=C1NCN(c2ccccc2)C12CCN(CCc1ccccc1)CC2` [PPTD, 1-phenyl-8-(2-phenylethyl)-1,3,8-triazaspiro[4.5]decan-4-one], the IC50 is 8.9 µM in assay [1], 19 µM in assay [2] and more than 37 µM in assay [3].

The values above are taken from doi:10.1101/2025.10.23.682519v1 (biorxiv, 2025).
